Data set [1] can be described thus: Plasma concentration-time data and PK parameters after a PO dose of 10 mg/kg in female CD1 nude mice (Groups 1-5). As for the experimental part:
(§1) Pharmacokinetic studies were performed in female CD-1 nude mice. —Either 10 or 50 mg/kg of each test article was administered PO, QD in 0.5% methylcellulose aqueous solution or suspension. […] Plasma concentrations were analyzed using a LC/MS method and the pharmacokinetic parameters computed using a noncompartmental method.

A short description of data set [2]: Plasma concentration in female CD-1 nude mice, formulation groups A-C. Conditions: for concentration at 6 h: time point 6 h; for concentration at 6 h / concentration at 8 h: individual mouse; for concentration at 8 h: time point 8 h; for concentration at 24 h: group mean. Type of data set: in vivo. On the procedure:
as §1

Data set [3] can be described thus: Dynamic vapor sorption (DVS). Type of data set: physicochemical. Conditions: for form transformation after DVS test: XRPD after DVS; for hygroscopicity classification: according to DVS result; for DVS Sorption (%): weight gain from 0 to 80% RH, 25° C. As for the experimental part: Transfer about 10 mg of sample into a DVS (DVS Advantage-1, SMS) and record the weight change with respect to the atmospheric humidity at 25° C. Use the following parameters: Equilibrium: dm/dt: 0.01%/min. (for min: 10 min and max: 180 min). Drying: 0% RH for 120 min RH (%) measurement step: 10%; RH (%) measurement step scope: 0-90-0%

For another data set, the system named is 293T-HRE-GFP-luc cells. The experiment in a line: Cell-based reporter assay for IC50 determinations. Conditions: hypoxia for 6 hrs. (1% O2); luminescence; read-out: IC50 Classification. As for the experimental part: IC50 values were calculated using a four-parameter logistic curve fit.
A further data set relates to TMD8 cells. The experiment in a line: Diffuse large B-cell lymphoma (DLBCL) assay, viable cells. Type of data set: cell-based. The settings on record: varying concentrations, 7 days; Guava ViaCount; FIG. 1. On the procedure: Equal number of TMD8 cells were plated and treated with varying concentrations of the compound of Example 80 for 7 days. Percent of viable cells was determined using Guava ViaCount reagents (EMD Millipore cat #4000-0040) that contains proprietary dyes that enable the determination of the number of live and dead cells in a sample (FIG. 1).

The test system of another data set is OCI-AML3 cell line. The experiment in a line: Acute myeloid leukemia cell viability. Type of data set: cell-based. Conditions: various concentrations, 2 days; normalized to DMSO; FIG. 6. On the procedure: (§2) The OCI-AML3 cell line was treated with various concentrations of compound for 2 days and the percent of viable cells normalized to control cells treated with DMSO (FIG. 6). OCI-AML3 cells constitutively expressing luciferase were tail vein injected in NSG nude mice. 17 days after cell injection, luciferin was injected into animals and luciferase signal was measured using an IVIS imaging system to determine tumor burden and for randomization of subjects into study groups. On day 18, animals began receiving daily oral doses of vehicle or 10 mpk of the compound of Example 80 which continued throughout the study. On day 28, imaging was performed again to determine tumor burden (FIG. 7).

Another data set deals with OCI-AML3 cells. The experiment in a line: OCI-AML3 human leukemia model in NSG mice. Type of data set: in vivo, NSG nude mice. The settings on record: daily oral 10 mg/kg. On the procedure:
as §2

The subject of a further data set is NB-1 cells. The experiment in a line: Neuroblastoma cellular assay. Type of data set: cell-based. The settings on record: various concentrations. From the text: (§3) NB-1, Gli56, and D423 cell lines are deleted for ENO-1 (GLI56 and D423) or PGD, which renders them with reduced glycolytic capacity (Muller, F. et al., Nature, 2012, 488, 337-42).
The test system of a further data set is Gli56 cells. The experiment in a line: Glioblastoma cellular assay Gli56. Type of data set: cell-based. The settings on record: various concentrations.
Source text: as §3

A further data set deals with D423 cells. The experiment in a line: Glioblastoma cellular assay D423. Type of data set: cell-based. Conditions: various concentrations; FIG. 4.
Source text: as §3

The subject of the next data set is NB-1 xenografts. The experiment in a line: NB-1 xenograft model. Type of data set: in vivo, CD-1 nude mice. The settings on record: daily oral treatment with 10 mg/kg; FIG. 5.
Where [4] appears, read: female, CD-1 nude, mouse, oral, read-out: Calc. Conc.
The mark [5] stands for this setting: female, CD-1 nude, mouse, oral, read-out: Calc. Conc. (ng/mL).
[6] abbreviates: time point 2 h, individual mice, PO, QD, 10 or 50 mg/kg, listed as C, methanesulfonate.
Where [7] appears, read: time point <24, individual mouse.
Setting [8] is: time point 2 h, individual mice, PO, QD, 10 or 50 mg/kg, listed as A.
Setting [9] is: time point 24 h, individual mice, PO, QD, 10 or 50 mg/kg, listed as A.
[10] abbreviates: female, CD-1 nude, mouse, in vivo, po, 10 mg/kg.
[11] abbreviates: time point 2 h, individual mice, PO, QD, 10 or 50 mg/kg, 2,2,2-trifluoroacetate.
The mark [12] stands for this setting: time point 24 h, individual mice, PO, QD, 10 or 50 mg/kg, 2,2,2-trifluoroacetate.

“And” between values parts separate entries of the source, which are not always exact repeats. Equal values may be shown once. “Also recorded” adds a separate entry of the source. Where a name gives a salt, the structure may show the parent alone. Read-outs that look alike come from different tables or passages of the source.

`Cc1nc(-c2nc(-c3ccc(OC(F)(F)F)cc3)no2)nn1Cc1cccc(N2CCC(S(C)(=O)=O)CC2)c1.O=S(=O)(O)c1ccccc1` [BESYLATE SALT, 1-(3-((5-methyl-3-(3-(4-(trifluoromethoxy)phenyl)-1,2,4-oxadiazol-5-yl)-1H-1,2,4-triazol-1-yl)methyl)phenyl)-4-(methylsulfonyl)piperidin-1-ium benzenesulfonate]: in data set [1] (mouse, in vivo, po), the “oral bioavailability in comparison to the free base” value is on record as “improved oral bioavailability” and the “plasma concentrations compared with the free base” value was “significantly higher”.

For the compound `Cc1nc(-c2nc(-c3ccc(OC(F)(F)F)cc3)no2)nn1Cc1cccc(N2CCC(S(C)(=O)=O)CC2)c1.O=C(O)C(F)(F)F` [5-(5-methyl-1-(3-(4-(methylsulfonyl)piperidin-1-yl)benzyl)-1H-1,2,4-triazol-3-yl)-3-(4-(trifluoromethoxy)phenyl)-1,2,4-oxadiazole 2,2,2-trifluoroacetate], in data set [1] (CD-1 mice, PO), the “plasma concentrations compared with the free base” value is recorded as “significantly higher”.

For `CS(=O)(=O)O.Cc1nc(-c2nc(-c3ccc(OC(F)(F)F)cc3)no2)nn1Cc1cccc(N2CCC(S(C)(=O)=O)CC2)c1` [MESYLATE SALT, 1-(3-((5-methyl-3-(3-(4-(trifluoromethoxy)phenyl)-1,2,4-oxadiazol-5-yl)-1H-1,2,4-triazol-1-yl)methyl)phenyl)-4-(methylsulfonyl)piperidin-1-ium methanesulfonate], in data set [2] (setting [4]), the concentration at 6 h is 2.95 µM and the concentration at 8 h was 2.91 µM. In [2] (setting [5]), the concentration at 6 h was 1660 ng/mL and the concentration at 8 h is 1640 ng/mL. In data set [2] (time point 2 h, PO, QD, 10 or 50 mg/kg), this compound yielded a concentration at 24 h of 2.2499 µM. Also, in data set [2] (setting [6]), the “Calc. Conc. (nM)” value is 2676.0 nM and 1457.7 nM and 2725.3 nM and 2248.5 nM and 2141.9 nM; the “Calc. Conc. (ng/mL)” value is 1504.5 ng/mL and 819.5 ng/mL and 1532.2 ng/mL and 1264.1 ng/mL and 1204.2 ng/mL. For the same compound, in data set [2] (setting [7]), the “Calc. Conc. (nM)” value is given as 1469.8 nM and the “Calc. Conc. (ng/mL)” value is 826.3 ng/mL. In data set [1] (mouse, in vivo, po), the “oral bioavailability in comparison to the free base” value was “improved oral bioavailability” and the “plasma concentrations compared with the free base” value is listed as “significantly higher”. Besides, in [3], the “form transformation after DVS test” value is “No form transformation was observed”, the hygroscopicity classification entry is reported as “hygroscopic” and the “DVS Sorption (%)” value is 2.47%.

As to `Cc1nc(-c2nc(-c3ccc(OC(F)(F)F)cc3)no2)nn1Cc1cccc(N2CCC(S(C)(=O)=O)CC2)c1` [HYDROCHLORIDE SALT, 5-(5-methyl-1-(3-(4-(methylsulfonyl)piperidin-1-yl)benzyl)-1H-1,2,4-triazol-3-yl)-3-(4-(trifluoromethoxy)phenyl)-1,2,4-oxadiazole hydrochloride], the “oral bioavailability in comparison to the free base” value in [1] (mouse, in vivo, po) is given as “improved oral bioavailability”. In addition, the “form transformation after DVS test” value in data set [3] is on record as “No form transformation was observed”. Also, in data set [3], the hygroscopicity classification entry is on record as “slightly hygroscopic”. Besides, the “DVS Sorption (%)” value came to 1.59% in [3] (listed as HCl, hydrochloride) and 1.59% in [3] (listed as hydrochloride candidate, hydrochloride).

Regarding `Cc1nc(-c2nc(-c3ccc(OC(F)(F)F)cc3)no2)nn1Cc1cccc(N2CCC(S(C)(=O)=O)CC2)c1.Cl` [5-(5-methyl-1-(3-(4-(methylsulfonyl)piperidin-1-yl)benzyl)-1H-1,2,4-triazol-3-yl)-3-(4-(trifluoromethoxy)phenyl)-1,2,4-oxadiazole hydrochloride], the “plasma concentrations compared with the free base” value in data set [1] (mouse, in vivo, po) is listed as “significantly higher”.

As usually defined, the Cmax is the peak of the concentration-time curve. One may read the IC50 as the concentration that gives 50% inhibition. In [2] (female, CD-1 nude, mouse, oral, time point 24 h, PO, QD, 10 or 50 mg/kg), `Cc1nc(-c2nc(-c3ccc(OC(F)(F)F)cc3)no2)nn1Cc1cccc(N2CCC(S(C)(=O)=O)CC2)c1` [Example 80, 4-Methanesulfonyl-1-{3-[(5-methyl-3-{3-[4-(trifluoromethoxy)phenyl]-1,2,4-oxadiazol-5-yl}-1H-1,2,4-triazol-1-yl)methyl]phenyl}piperidine] yielded a concentration at 24 h of 0.414 µM. In [2] (time point 2 h, PO, QD, 10 or 50 mg/kg, listed as A), this compound had a concentration at 24 h of 0.5612 µM. Moreover, in [2] (setting [8]), the “Calc. Conc. (nM)” value was 591.7 nM and 510.0 nM and 285.4 nM and 657.3 nM and 761.7 nM; the “Calc. Conc. (ng/mL)” value was 332.7 ng/mL and 286.7 ng/mL and 160.4 ng/mL and 369.5 ng/mL and 428.2 ng/mL. Moreover, in data set [2] (setting [9]), the “Calc. Conc. (nM)” value is 987.2 nM and 307.2 nM and 342.7 nM and 233.3 nM and 201.3 nM; the “Calc. Conc. (ng/mL)” value is 555.0 ng/mL and 172.7 ng/mL and 192.7 ng/mL and 131.2 ng/mL and 113.1 ng/mL. In addition, in data set [1] (setting [10]), the AUCINF was 16.2 µM·h, the AUClast came to 12.1 µM·h, the concentration peaked (Cmax) at 0.959 µM and the “Terminal t1/2” value came to 12.4 h. The “Concentration Mean” value in data set [1] (female, CD-1 nude, mouse, in vivo, po, 10 mg/kg, 0.083 hr) turned out to be 0.0289 µM. In addition, in [1] (female, CD-1 nude, mouse, in vivo, po, 10 mg/kg, 0.25 hr), the “Concentration Mean” value turned out to be 0.280 µM. In addition, the “Concentration Mean” value in data set [1] (female, CD-1 nude, mouse, in vivo, po, 10 mg/kg, 0.5 hr) was determined as 0.440 µM. Further, the IC50 in the data set on 293T-HRE-GFP-luc cells is below 0.1 µM. The “number/percent of viable TMD8 cells” value in the data set on TMD8 cells is given as “reduced number of viable cells; also recorded: respond robustly”. Further, in the data set on OCI-AML3 cell line, the “number of viable OCI-AML3 cells” value is “reduced number of viable cells”. Further, the “disease burden measured by IVIS imaging” value in the data set with OCI-AML3 cells (FIG. 7) was “reduces disease burden”. Also, the survival entry in the data set on OCI-AML3 cells (relative to vehicle, FIG. 8, 10 mg/kg) was “extends survival; also recorded: significantly increased their survival”. In addition, in the data set with NB-1 cells, the “cell death in NB-1 cells” value was “cell death readily apparent”. In the data set with NB-1 cells (FIG. 2), the “number of viable NB-1 cells” value is “reduced number of viable cells; also recorded: cell numbers are significantly reduced”. Moreover, the “cell death in Gli56 cells” value with Gli56 cells is “cell death readily apparent”. Further, in the data set on Gli56 cells (FIG. 3), the “number of viable Gli56 cells” value is “reduced number of viable cells; also recorded: cell numbers are significantly reduced”. Besides, the “number of viable D423 cells” value with D423 cells was “reduced number of viable cells; also recorded: cell numbers are significantly reduced”. Further, the “growth of NB-1 xenografts (tumor growth)” value in the data set with NB-1 xenografts was “reduces the tumor growth”. In [3], the “DVS Sorption (%)” value is given as 0.16%.

Regarding `Cc1nc(-c2nc(-c3ccc(OC(F)(F)F)cc3)no2)nn1Cc1cccc(N2CCC(S(C)(=O)=O)CC2)c1` [B, 5-(5-methyl-1-(3-(4-(methylsulfonyl)piperidin-1-yl)benzyl)-1H-1,2,4-triazol-3-yl)-3-(4-(trifluoromethoxy)phenyl)-1,2,4-oxadiazole 2,2,2-trifluoroacetate], the concentration at 24 h in [2] (time point 2 h, PO, QD, 10 or 50 mg/kg, 2,2,2-trifluoroacetate) was 0.8348 µM; in data set [2] (time point 24 h, PO, QD, 10 or 50 mg/kg, 2,2,2-trifluoroacetate) it was 0.7764 µM. Also, the “Calc. Conc. (nM)” value in [2] (setting [11]) is 1131.9 nM and 748.0 nM and 793.6 nM and 632.1 nM and 868.2 nM; in data set [2] (setting [12]), 1426.5 nM and 220.7 nM and 1116.1 nM and 490.3 nM and 628.2 nM. The “Calc. Conc. (ng/mL)” value was 636.4 ng/mL and 420.5 ng/mL and 446.2 ng/mL and 355.4 ng/mL and 488.1 ng/mL in data set [2] (setting [11]); 802.0 ng/mL and 124.1 ng/mL and 627.5 ng/mL and 275.6 ng/mL and 353.2 ng/mL in [2] (setting [12]).

The values are drawn from patent US10363248B2, “Salts of heterocyclic modulators of HIF activity for treatment of disease” (priority 2014, dated 2019).
